Molecules are shown by their SMILES.

Sequence of human Edg-2 receptor (LPA1 receptor) (Q92633 whole entry): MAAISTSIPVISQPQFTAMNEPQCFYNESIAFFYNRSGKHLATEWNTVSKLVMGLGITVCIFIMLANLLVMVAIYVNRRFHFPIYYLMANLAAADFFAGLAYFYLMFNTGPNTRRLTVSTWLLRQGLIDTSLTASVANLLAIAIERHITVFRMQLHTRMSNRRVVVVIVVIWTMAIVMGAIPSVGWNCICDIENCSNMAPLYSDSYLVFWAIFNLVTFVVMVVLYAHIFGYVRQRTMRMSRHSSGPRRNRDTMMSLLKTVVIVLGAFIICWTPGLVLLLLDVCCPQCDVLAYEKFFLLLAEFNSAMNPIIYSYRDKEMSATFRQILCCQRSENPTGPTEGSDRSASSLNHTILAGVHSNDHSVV

This test has as its target human Edg-2 receptor (LPA1 receptor) (Homo sapiens, UniProt Q92633). The test is described as follows: Edg-2 receptor inhibition by FLIPR calcium fluorescence measurement (LPA-mediated calcium liberation). The format is cell-based. To be noted: CHO cells stably overexpressing human Edg-2 receptor; LPA 18:1 100 nM; fluo-4 fluorescence; triplicate; read-out: Inhibitory concentrations IC50 for inhibition of the Edg-2 receptor. The protocol:
A) Determination of Edg-2 Receptor Inhibition by Fluorescence Imaging Plate Reader (FLIPR) Measurements
The inhibition of the Edg-2 receptor (LPA1 receptor) by the compounds of the invention was quantified by the inhibitory effect on the LPA-mediated calcium liberation in a cell-based calcium fluorescence assay by use of Chinese hamster ovarian (CHO) cells in which the human Edg-2 receptor was stably overexpressed (FIp-In system, Invitrogen). […] Changes in intracellular calcium were determined by fluorescence measurement with the calcium-sensitive dye fluo-4 (Invitrogen) in a fluorescence imaging plate reader (FLIPR, […]).
CHO cells stably overexpressing the human Edg-2 receptor were seeded (40.000 per well) in black clear-bottomed poly-D-lysine-coated 96 well plates (Becton Dickinson, Biocoat cellware) approximately 18-24 h prior to the experiments. Cells were grown in an incubator at 37° C., 5% carbon dioxide and 95% humidity in cell culture media based on F-12 glutamax media (Gibco, #31765) supplemented with 1% (vol/vol) penicilline/streptomycine (PAN, #P06-07100), 10% (vol/vol) fetal calf serum (FCS, PAA, #A15-151) and hygromycin B (Invitrogen, #10687-010) 300 mg/l (final concentrations).
Prior to the FLIPR experiment, cells were loaded with fluo-4 acetoxymethyl ester (fluo-4 AM, Invitrogen, #F14202) for 60 min in an incubator at 37° C., 5% carbon dioxide and 95% humidity in dye-loading buffer consisting of Hanks' Balanced Salt Solution (HBSS, Invitrogen, #14065049) supplemented with fluo-4 AM at 2 μM (all data given for final concentration), Pluronic® F-127 0.05% (vol/vol) (Invitrogen, #P-3000 MP), HEPES 20 mM (Gibco, #15630), probenecid 2.5 mM (Sigma, #P-8761) and bovine serum albumin 0.05% (BSA, Sigma, #A-6003), adjusted to pH 7.5 with sodium hydroxide. During cell loading, fluo-4 AM is cleaved by intracellular esterase resulting in trapping of the dye fluo-4 within the cells. Loading was terminated by washing of the cells in a cell washer (Tecan Power washer) three times with the buffer specified afore but without fluo-4 AM and BSA. This latter buffer was also used as the buffer in the subsequent cell fluorescence measurements.
The dye-loaded and washed cells were pre-incubated for approximately 5 min with various concentrations of the test compound added as a solution in DMSO (0.3% vol/vol maximum final concentration of DMSO), or with DMSO in the respective concentration only (positive control). Subsequent addition of LPA (18:1, 1-oleoyl-sn-glycerol 3-phosphate; 100 nM final concentration) leads to liberation of intracellular calcium from internal stores resulting in a large transient increase of the fluo-4 fluorescence signal which was monitored over approximately 3 min. The percent inhibition caused by the test compound was determined from the maximum fluorescence response after LPA addition to cells pre-incubated with the compound as compared to the maximum fluorescence response after LPA addition to cells pre-incubated with DMSO only. All fluorescence values were corrected for the baseline fluorescence values obtained with cells which were pre-incubated with DMSO only and were not treated with LPA (baseline control). All measurements were performed in triplicate. From the percent inhibitions the inhibitory concentration IC50 was determined.
For `COc1ccc(C(=O)NC2(C(=O)O)Cc3ccccc3C2O)cc1OCCc1cccc(C)c1` (single isomer, unassigned) [Example 220, 1-Hydroxy-2-[4-methoxy-3-(2-m-tolyl-ethoxy)-benzoylamino]-indane-2-carboxylic acid], the IC50 was under 0.1 µM.

On to `Cc1cccc(CCOc2cc(C(=O)NC3(C(=O)O)Cc4ccccc4C3)ccc2Br)c1` [Example 2, 2-[4-Bromo-3-(2-m-tolyl-ethoxy)-benzoylamino]-indane-2-carboxylic acid], for which the IC50 is under 0.1 µM.

For `CSc1ccc(C(=O)NC2(C(=O)O)Cc3ccccc3C2)cc1OCCc1cccc(C)c1` [Example 4, 2-[4-Methylsulfanyl-3-(2-m-tolyl-ethoxy)-benzoylamino]-indane-2-carboxylic acid], the IC50 was under 0.1 µM.

Consider `Cc1cccc(CCOc2cc(C(=O)NC3(C(=O)O)Cc4ccccc4C3)ccc2[S+](C)[O-])c1` (stereo not shown) [Example 5, 2-[4-Methanesulfinyl-3-(2-m-tolyl-ethoxy)-benzoylamino]-indane-2-carboxylic acid], for which the IC50 lay within 1 to 30 µM.

Consider `Cc1cccc(CCOc2cc(C(=O)NC3(C(=O)O)Cc4ccccc4C3)ccc2S(C)(=O)=O)c1` [Example 6, 2-[4-Methanesulfonyl-3-(2-m-tolyl-ethoxy)-benzoylamino]-indane-2-carboxylic acid], for which the IC50 lay in the range of 1 to 30 µM.

As for `CC(=O)c1ccc(C(=O)NC2(C(=O)O)Cc3ccccc3C2)cc1OCCc1cccc(C)c1` [Example 8, 2-[4-Acetyl-3-(2-m-tolyl-ethoxy)-benzoylamino]-indane-2-carboxylic acid], the IC50 lay in the range of 0.1 to 1 µM.

Regarding `Cc1cccc(CCOc2cc(C(=O)NC3(C(=O)O)Cc4ccccc4C3)ccc2C(C)O)c1` (stereo not shown) [Example 9, 2-[4-(1-Hydroxy-ethyl)-3-(2-m-tolyl-ethoxy)-benzoylamino]-indane-2-carboxylic acid], the IC50 lay within 0.1 to 1 µM.

With `CCc1ccc(C(=O)NC2(C(=O)O)Cc3ccccc3C2)cc1OCCc1cccc(C)c1` [Example 10, 2-[4-Ethyl-3-(2-m-tolyl-ethoxy)-benzoylamino]-indane-2-carboxylic acid], the IC50 was under 0.1 µM.

For the compound `Cc1cccc(CCOc2cc(C(=O)NC3(C(=O)O)Cc4ccccc4C3)ccc2C(C)F)c1` (stereo not shown) [Example 11, 2-[4-(1-Fluoro-ethyl)-3-(2-m-tolyl-ethoxy)-benzoylamino]-indane-2-carboxylic acid], the IC50 was under 0.1 µM.

For the compound `CCOc1ccc(C(=O)NC2(C(=O)O)Cc3ccccc3C2)cc1OCCc1cccc(C)c1` [Example 12, 2-[4-Ethoxy-3-(2-m-tolyl-ethoxy)-benzoylamino]-indane-2-carboxylic acid], the IC50 was under 0.1 µM.

On to `COc1ccc(C(=O)NC2(C(=O)O)Cc3ccccc3C2)cc1OCCc1cccc(C)c1` [Example 14, 2-[4-Methoxy-3-(2-m-tolyl-ethoxy)-benzoylamino]-indane-2-carboxylic acid], for which the IC50 is under 0.1 µM.

In the case of `COc1ccc(C(=O)NC2(C(=O)O)Cc3ccccc3C2)cc1OCCc1cccc(SC)c1` [Example 16, 2-{4-Methoxy-3-[2-(3-methylsulfanyl-phenyl)-ethoxy]-benzoylamino}-indane-2-carboxylic acid], the IC50 was under 0.1 µM.

On to `COc1ccc(C(=O)NC2(C(=O)O)Cc3ccccc3C2)cc1OCCc1cccc([S+](C)[O-])c1` (stereo not shown) [Example 17, 2-{3-[2-(3-Methanesulfinyl-phenyl)-ethoxy]-4-methoxy-benzoylamino}-indane-2-carboxylic acid], for which the IC50 lay within 1 to 30 µM.

For the compound `COc1ccc(C(=O)NC2(C(=O)O)Cc3ccccc3C2)cc1OCCc1cccc(S(C)(=O)=O)c1` [Example 18, 2-{3-[2-(3-Methanesulfonyl-phenyl)-ethoxy]-4-methoxy-benzoylamino}-indane-2-carboxylic acid], the IC50 fell in the range of 1 to 30 µM.

On to `COc1ccc(C(=O)NC2(C(=O)O)Cc3ccccc3C2)cc1OCCc1cccc(SC(F)(F)F)c1` [Example 19], for which the IC50 was under 0.1 µM.

Take `COc1ccc(C(=O)NC2(C(=O)O)Cc3ccccc3C2)cc1OCCc1cc(C)ccc1F` [Example 20]: the IC50 was under 0.1 µM.

Turning to `COc1ccc(C(=O)NC2(C(=O)O)Cc3ccccc3C2)cc1OCCc1cccc(C2CC2)c1` [Example 21, 2-{3-[2-(3-cyclopropyl-phenyl)-ethoxy]-4-methoxy-benzoylamino}-indane-2-carboxylic acid], the IC50 was under 0.1 µM.

For the compound `COc1ccc(C(=O)NC2(C(=O)O)Cc3ccccc3C2)cc1OCCc1cc(C)cc(C)c1` [Example 22], the IC50 lay within 1 to 30 µM.

With `CCc1cccc(CCOc2cc(C(=O)NC3(C(=O)O)Cc4ccccc4C3)ccc2OC)c1` [Example 23], the IC50 is under 0.1 µM.

Take `COc1ccc(C(=O)NC2(C(=O)O)Cc3ccccc3C2)cc1OCC1(c2cccc(C)c2)CC1` [Example 24]: the IC50 was under 0.1 µM.

Regarding `COc1ccc(C(=O)NC2(C(=O)O)Cc3ccccc3C2)cc1OCCc1cccc(C(C)C)c1` [Example 25], the IC50 is under 0.1 µM.

As to `COc1ccc(C(=O)NC2(C(=O)O)Cc3ccccc3C2)cc1OCCc1ccc(C#N)cc1` [Example 26], the IC50 was in the range of 1 to 30 µM.

For `COCCOCCOc1cc(C(=O)NC2(C(=O)O)Cc3ccccc3C2)ccc1OC` [Example 28], the IC50 lay within 1 to 30 µM.

As to `CCOc1ccc(COc2cc(C(=O)NC3(C(=O)O)Cc4ccccc4C3)ccc2OC)cc1` [Example 29], the IC50 was in the range of 1 to 30 µM.

`COc1ccc(C(=O)NC2(C(=O)O)Cc3ccccc3C2)cc1OCCC1CCCCC1` [Example 30]: the IC50 is 1 to 30 µM.

For the compound `COc1ccc(C(=O)NC2(C(=O)O)Cc3ccccc3C2)cc1OCCc1c[nH]c2ccccc12` [Example 32], the IC50 fell in the range of 1 to 30 µM.

On to `COCCOc1cc(C(=O)NC2(C(=O)O)Cc3ccccc3C2)ccc1OC` [Example 33], for which the IC50 is 1 to 30 µM.

As for `COc1ccc(C(=O)NC2(C(=O)O)Cc3ccccc3C2)cc1OCCCCc1ccccc1` [Example 34], the IC50 lay in the range of 1 to 30 µM.

As for `COc1ccc(C(=O)NC2(C(=O)O)Cc3ccccc3C2)cc1OCC(C)C` [Example 35], the IC50 is 1 to 30 µM.

On to `COc1ccc(C(=O)NC2(C(=O)O)Cc3ccccc3C2)cc1OCCC(C)C` [Example 36], for which the IC50 is 1 to 30 µM.

Consider `COc1ccc(C(=O)NC2(C(=O)O)Cc3ccccc3C2)cc1OCC(C)(C)C` [Example 37], for which the IC50 lay in the range of 1 to 30 µM.

Consider `COc1ccc(C(=O)NC2(C(=O)O)Cc3ccccc3C2)cc1OCC1CCOC1` (stereo not shown) [Example 38], for which the IC50 fell in the range of 1 to 30 µM.

`COc1ccc(C(=O)NC2(C(=O)O)Cc3ccccc3C2)cc1OCc1ccc(Cl)cc1` [Example 39]: the IC50 is 1 to 30 µM.

Regarding `COc1ccc(C(=O)NC2(C(=O)O)Cc3ccccc3C2)cc1OCc1ccc(C(C)(C)C)cc1` [Example 40], the IC50 fell in the range of 1 to 30 µM.

With `CCc1ccc(COc2cc(C(=O)NC3(C(=O)O)Cc4ccccc4C3)ccc2OC)cc1` [Example 41], the IC50 is 1 to 30 µM.

Consider `COc1ccc(C(=O)NC2(C(=O)O)Cc3ccccc3C2)cc1OCC1CCCC1` [Example 42], for which the IC50 was in the range of 1 to 30 µM.

As to `COc1ccc(C(=O)NC2(C(=O)O)Cc3ccccc3C2)cc1OCCCC(C)C` [Example 43], the IC50 lay within 1 to 30 µM.

Regarding `COc1ccc(C(=O)NC2(C(=O)O)Cc3ccccc3C2)cc1OCCc1cccc2ccccc12` [Example 44], the IC50 lay in the range of 1 to 30 µM.

`COc1ccc(C(=O)NC2(C(=O)O)Cc3ccccc3C2)cc1OC/C=C/c1ccccc1` [Example 45]: the IC50 is 1 to 30 µM.

Consider `COc1ccc(C(=O)NC2(C(=O)O)Cc3ccccc3C2)cc1OCCc1ccccc1C(F)(F)F` [Example 47], for which the IC50 is 1 to 30 µM.
